Experimental data reported in patent publication EP1087941B9, “THIOLESTERS AND USES THEREOF” (THE UNITED STATES OF AMERICA, as represented by THE …, priority 1998, dated 1999).
Like-named read-outs stand apart in the source and are kept apart here.

What was measured:
HIV-1 virus = experiment: Virus inactivation determined by PCR assay for intracellularly synthesized viral RNA; assay type: cell-based
Text: The thiolester-treated virions can also be tested for infectivity. The virions are suspended in media (rather than solubilized) and added to target cells. The cultures are then examined to determine whether the virions are still active. To determine whether the treated virus particles are active, the cells are monitored for the presence of intracellularly-synthesized viral RNA using, for example, the polymerase chain reaction (PCR) (Rice (1993) Proc. Natl. Acad. Sci. USA 90:9721; Turpin (1996) J. Virol. 70:6180). Alternatively, cytoprotection assays can be used (Weislow (1993) J. Natl. Cancer Inst. 81:577).
An example of a compound which can be used as a control in the gel mobility shift assay is azodicarbonamide (ADA), a compound which is commercially available from the Aldrich Chemical Company (Milwaukee, WI).

[1] = biological target: T1, Virion-associated NCp7 proteins from cell-free HIV-1MN (Human immunodeficiency virus type 1 group M subtype B, UniProt P05888); experiment: Intravirion NCp7 cross-linking, non-reducing Western blotting
T1 construct: an attack on the mature NCp7 retroviral zinc fingers in the cell-free virus; endogenous in cells
Experimental: The interaction of zinc finger inhibitors, such as the thiolesters of the invention, with cell-free virus can result in modification of intravirion NCp7 protein and loss of infectivity. Virion-associated NCp7 proteins from cell-free HIV-1MN were treated with thiolester compounds 44 and 45. They were also evaluated by non-reducing Western blotting using HIV-1 NCp7-specific antibodies. […] Cross-linking by compound 45 was due to formation of intermolecular disulfide bonds because reduction with 2-mercaptoethanol (β-ME) completely reversed the gel retardation.
Virion cross linking was performed as described by Rice (1995) Science 270:1194-1197 and Turpin (1997) Antiviral Chem. Chemother. 8:60-67. Briefly, highly purified HIV-1 MN (11.8 µg total protein) was incubated for 2 hour with concentrations of compound. Virions were concentrated and residual compound was removed by centrifugation (18,000 x g, 1 h, 4°C). The viral pellet was solubilized in 0.5 M Tris-HCl,(pH 6.8), 50% glycerol, 8% SDS and 0.4% bromophenol blue and proteins resolved by Western blotting. Western blotting to detect the expression of HIV-1 proteins in U1 cells or virus pellets for virion cross-linking experiments was carried out as described by Turpin (1996) J. Virol. 70:6180-6189. Briefly, 50 µg of total cellular protein for U1 experiments or the total virion pellet (11.8 µg total viral protein) for NCp7 cross linking studies was resolved on 4 to 20% polyacrylamide gels in SDS with Tris-Glycine (Novex, San Diego CA). Samples for reduced gels were boiled for 5 min in the presence of 5% β-ME prior to loading. Resolved proteins were electroblotted on to polyvinylidene difluoride (PVDF) membranes, and HIV-1 specific proteins were detected using a mixture of goat anti- HIV-1 NCp7 and p24 or anti-NCp7 for virion proteins alone (a kind gift of L. E. Henderson, AIDS Vaccine Program NCI-FCRDC, Frederick, MD). Western blots were developed using standard chemiluminescence methodologies, as produced and described by Dupont-NEN, Wilmington, DE.
Purified concentrated retrovirus and antisera against the purified NC protein of the virus can be used to test the ability of a specific compound to penetrate the virus and react with the NC protein by forming disulfide complexes in the core of the virus. Compound are mixed with the whole retrovirus under reaction conditions appropriate for the compound. The virus is then removed from the reagent by centrifugation and disrupted in, e.g., standard SDS-PAGE sample buffer with (reduced) and without (non-reduced) 2-mercaptoethanol. […] Thus, compounds of interest (i.e., those which cause cross-linking), including the thiolesters of the invention, reduce the amount of monomeric zinc finger protein detected.

HIV-1RF = experiment: XTT cytoprotection assay (antiviral activity); assay type: cell-based
Text: (§1) One exemplary means to determine antiviral activity is with CEM-SS cells and virus (e.g., HIV-1RF) (MOI = 0.01) using the XTT (2,3-bis[2-methoxy- 4-nitro-5-sulfophenyl] -5- [(phenylamino)carbonyl]-2H-tetrazolium hydroxide) cytoprotection assay, as described by Rice (1993) PNAS 90:9721-9724, and Rice (1997) Antimicrob. Agents Chemother. 41:419-426. Briefly, cells are infected with HIV-1RF (or other virus to be tested) in the presence of various dilutions of test compounds (thiolesters and controls). The cultures are incubated for seven days. During this time control cultures without protective compounds (i.e., compounds with anti-viral activity) replicate virus, induce syncytia, and result in about 90% cell death. The cell death is measured by XTT dye reduction. XTT is a soluble tetrazolimn dye that measures mitochondrial energy output, similar to MTT. Positive controls using dextran sulfate (an attachment inhibitor) or 3'-Azido -2'-3'-dideoxythymidine, AZT (a reverse transcriptase inhibitor) are added to each assay. Individual assays are done in duplicate using a sister plate method.
(§2) Effective antiviral concentrations providing 50% cytoprotection (EC50), and cellular growth inhibitory concentrations causing 50% cytotoxicity (IC50) are calculated.

CEM-SS cells = experiment: cells; assay type: cell-based; details: Homo sapiens, CEM-SS
Text: as §1, §2

[2] = biological target: T2, recombinant HIV-1 NCp7 protein (Human immunodeficiency virus type 1 group M subtype B, UniProt P03347); experiment: Trp37 zinc finger fluorescence (zinc ejection) assay; assay type: biochemical; details: for Zinc Finger Reactivity RFU/ min: average decrease in relative fluorescence units over 30 min
T2 construct: within the nucleocapsid p7 (NCp7) protein portion of the polyprotein
Experimental: Zinc finger reactivity was measured using a Zn specific fluorochrome, TSQ, N-(6-methoxy-8-quinolyl) -p-toluenesulfonamide, assay or a Trp37 zinc finger fluorescence assay. Fluorescent measurements of the Trp37 residue in the C-terminal finger of recombinant HIV-1 NCp7 protein were performed as described by Rice (1995) Science 270:1194-1197; Rice (1997) Antimicrob. Agents Chemother. 41:419-426. Measurement of Zn ejection from both fingers was measured using the Zn-selective fluorchrome probe TSQ (Molecular Probes, Eugene OR) as described by Rice (1996) J. Med. Chem 39:3606-3616. Measurement of the ability of NCp7 to bind to a DNA oligomer, a 44 mer: […] (SEQ ID NO:1), analogous to the HIV-1 RNA packaging site was carried out as described by Huang (1998) J. Med. Chem. 41:1371-1381, see also, Rossio (1998) HIV Pathogenesis and Treatment: Keystone Symposium on Molecular and Cellular Biology, Abstract # 4082. Briefly, 50 nM NCp7 was treated with test compounds for 1 hour at RT in […] buffer containing 10% glycerol and 50 mM Tris-HCl (pH 7.5). Labeled oligomer (0.1 picomole, end labeled [^32P]) was added in an equal volume of buffer containing 10% glycerol, 50 mM Tris-HCl (pH 7.5), 400 mM KCl and 40 mM MgCl2. The reaction was continued for 15 min at room temperature, and a total of […] (or 1/4 of the total reaction volume) was separated on nondenaturing 4.5% polyacrylamide gels in 0.5X Tris-Borate electrophoresis buffer. NCp7-oligomer complexes were visualized by autoradiography.
Changes in the intrinsic fluorescence of aromatic protein moieties are commonly used to monitor a reaction which involves a change in protein conformation. In the present invention, fluorescence can be used to monitor the loss of metal ion from a zinc finger, e.g., the loss of zinc from a CCHC retroviral zinc finger protein, after contact with a thiolester of the invention. The intrinsic fluorescence of Trp 37 in the second zinc finger of HIV-1 NC protein has been used to monitor nucleic acid binding and conformation of the zinc finger complex (see, Summers (1992) supra).
Zinc ejection is measured by the ability of compounds to chemically attack the cysteines in purified NCp7 protein resulting in a loss of fluorescence due to the movement of the tryptophan 37 residue from an exposed to an internal position on the protein. Zinc ejection is measured and expressed as either percent decrease in total fluorescence or decrease in relative fluorescence units per min during a 30 min assay (RFU/min). A thiolester is considered within the scope of the invention if any amount of zinc ejection is detected. For example, compound 50 has a zinc ejection rate of 0.86 RFU/min.

[3] = Human immunodeficiency virus 1, read-out: Antiviral Activity EC50
[4] = read-out: Antiviral Activity IC50%
[5] = read-out: IC50 / cellular toxicity
[6] = Human immunodeficiency virus 1, read-out: Antiviral Activity EC50%
[7] = read-out: Antiviral Activity IC50

Row | Compound | IC50 (CEM-SS cells; [4]) | EC50 (HIV-1RF; [6]) | IC50 (CEM-SS cells; [7]) | Zinc Finger Reactivity RFU/ min ([2]; Table 6) | further results
1 | NC(=O)N=NC(N)=O [ADA, azodicarbonamide] | – | – | – | – | inactivation of HIV-1 virus (HIV-1 virus): inactivates HIV-1 virus
2 | Cc1cn([C@H]2C[C@H](N=[N+]=[N-])[C@@H](CO)O2)c(=O)[nH]c1=O [AZT, 3'-Azido-2'-3'-dideoxythymidine, reference compound] | – | – | – | – | intravirion NCp7 cross-linking [1]: failed to cross-link NCp7
3 | CC(=O)NS(=O)(=O)c1ccc(NC(=O)c2ccccc2SC(C)=O)cc1 [Compound 40] | 56.7 µM | – | – | – | EC50 (HIV-1RF; [3]): 2.8 µM; IC50 (CEM-SS cells; [5]): ~50 µM; Zinc Finger Reactivity RFU/ min ([2]; Table 5): 4.2 RFU/ min
4 | CC(=O)NS(=O)(=O)c1ccc(NC(=O)c2ccccc2SC(=O)c2ccccc2)cc1 [Compound 41] | 45.7 µM | – | – | – | EC50 (HIV-1RF; [3]): 2.6 µM; IC50 (CEM-SS cells; [5]): ~50 µM; Zinc Finger Reactivity RFU/ min ([2]; Table 5): 2.2 RFU/ min
5 | COc1ccc(C(=O)Sc2ccccc2C(=O)Nc2ccc(S(=O)(=O)NC(C)=O)cc2)cc1 [Compound 42] | 43.7 µM | – | – | – | EC50 (HIV-1RF; [3]): 2.8 µM; IC50 (CEM-SS cells; [5]): ~50 µM; Zinc Finger Reactivity RFU/ min ([2]; Table 5): 3.5 RFU/ min
6 | O=C(CCCCBr)Sc1ccccc1C(=O)Nc1ccc(S(=O)(=O)c2ccc([N+](=O)[O-])cc2)cc1 [Compound 46] | – | 1.6 µM | 21.7 µM | 1 RFU/ min | –
7 | NS(=O)(=O)c1ccc(CNC(=O)c2ccccc2SC(=O)CCCC[n+]2ccccc2)cc1 [Compound 48] | – | 1.1 µM | 55 µM | 1.4 RFU/ min | IC50 (CEM-SS cells; [5]): 55 µM
8 | O=C(CCCCBr)Sc1ccccc1C(=O)Nc1ccc(S(=O)(=O)c2ccc(NS(=O)(=O)Cc3ccccc3[N+](=O)[O-])cc2)cc1 [Compound 49] | – | > 316 µM | > 316 µM | 1.9 RFU/ min | –
9 | O=C(CCCC[n+]1ccccc1)Sc1ccccc1C(=O)Nc1ccc(S(=O)(=O)c2ccc(NS(=O)(=O)Cc3ccccc3[N+](=O)[O-])cc2)cc1 [Compound 50] | – | 2.9 µM | > 316 µM | 0.86 RFU/ min | zinc finger reactivity / zinc ejection rate [2]: 0.86 RFU/min
10 | CC(=O)Nc1ccc(S(=O)(=O)c2ccc(NC(=O)c3ccccc3SC(=O)CCCC[n+]3ccccc3)cc2)cc1 [Compound 51] | – | 4.6 µM | 288 µM | 1.7 RFU/ min | –
11 | CC(=O)Nc1cccc(S(=O)(=O)c2cccc(NC(=O)c3ccccc3SC(=O)CCCC[n+]3ccccc3)c2)c1 [Compound 52] | – | 4.9 µM | 205 µM | 1.1 RFU/ min | –
12 | CC(=O)NS(=O)(=O)c1ccc(NC(=O)c2ccccc2SC(=O)CCC[n+]2ccccc2)cc1 [Compound 54] | 175 µM | 10.1 µM | – | – | Zinc Finger Reactivity RFU/ min ([2]; Table 10): 2.2 RFU/ min
13 | CC(=O)NS(=O)(=O)c1ccc(NC(=O)c2ccccc2SC(=O)CCCCC[n+]2ccccc2)cc1 [Compound 55] | 69.7 µM | 10.5 µM | – | – | Zinc Finger Reactivity RFU/ min ([2]; Table 10): 1.9 RFU/ min
14 | CC(=O)NS(=O)(=O)c1ccc(NC(=O)c2ccccc2NC(=O)CCCC[n+]2ccccc2)cc1 [Compound 56] | > 316 µM | > 316 µM | – | – | antiviral activity (HIV-1RF; result in words): inactive; Zinc Finger Reactivity RFU/ min ([2]; Table 10): 2.6 RFU/ min
15 | CC(=O)NS(=O)(=O)c1ccc(NC(=O)c2ccccc2SC(=O)CCCC[n+]2cccc(Cl)c2)cc1 [Compound 57] | 264 µM | 54 µM | – | – | Zinc Finger Reactivity RFU/ min ([2]; Table 10): 0.2 RFU/ min
